Values after ≈ are worked out from the molar mass of the structure shown. Active and inactive are the calls of the source. The calls are words filed in the database; no cut-off is given here.
Tests used:
Pseudomonas aeruginosa [1] = experiment: Antibacterial activity against Pseudomonas aeruginosa after 18 hr by NCCLS dilution tube method; format: functional
Staphylococcus aureus [2] = experiment: Antibacterial activity against methicillin-susceptible Staphylococcus aureus ATCC 1112 after 18 hr by NCCLS dilution tube method; format: functional; conditions: for MIC: ATCC 1112, 18 h
Staphylococcus aureus [3] = experiment: Antibacterial activity against methicillin-resistant Staphylococcus aureus after 18 hr by NCCLS dilution tube method; format: functional
Klebsiella pneumoniae [4] = experiment: Antibacterial activity against Klebsiella pneumoniae after 18 hr by NCCLS dilution tube method; format: functional
Klebsiella pneumoniae [5] = experiment: Antibacterial activity against Klebsiella pneumoniae at > 1000 uM after 18 hr by NCCLS dilution tube method; format: functional, organism-based
Pseudomonas aeruginosa [6] = experiment: Antibacterial activity against Pseudomonas aeruginosa at > 1000 uM after 18 hr by NCCLS dilution tube method; format: functional, organism-based
Streptococcus pyogenes = experiment: Antibacterial activity against Streptococcus pyogenes after 18 hr by NCCLS dilution tube method; format: functional
Streptococcus pneumoniae = experiment: Antibacterial activity against Streptococcus pneumoniae after 18 hr by NCCLS dilution tube method; format: functional

SMILES	MIC (Staphylococcus aureus [2])	MIC (Staphylococcus aureus [3])	further results
N#Cc1cnn(-c2ccc([N+](=O)[O-])cc2[N+](=O)[O-])c1NC(=O)C12CC3CC(CC(C3)C1)C2	57.4 µM (≈ 25.1 µg/mL)	57.4 µM (≈ 25.1 µg/mL)	MIC (Pseudomonas aeruginosa [1]): > 300 µM; MIC (Klebsiella pneumoniae [4]): > 300 µM
Cc1onc(-c2ccccc2Cl)c1C(=O)N[C@@H]1C(=O)N2[C@@H]1SC(C)(C)[C@@H]2C(=O)O [CLOXACILLIN]	13.7 µM (≈ 5.97 µg/mL)	94 µM (≈ 41 µg/mL)	
CN(C)c1ccc(C(=O)Nc2c(C#N)cnn2-c2ccc([N+](=O)[O-])cc2[N+](=O)[O-])cc1	3.8 µM (≈ 1.6 µg/mL)	3.8 µM (≈ 1.6 µg/mL)	
N#Cc1cnn(-c2ccc([N+](=O)[O-])cc2[N+](=O)[O-])c1NC(=O)c1ccc(F)cc1	126 µM (≈ 50.1 µg/mL)	252 µM (≈ 100 µg/mL)	
N#Cc1cnn(-c2ccc([N+](=O)[O-])cc2[N+](=O)[O-])c1NC(=O)c1ccccc1	132 µM (≈ 50 µg/mL)	264 µM (≈ 100 µg/mL)	Activity (Klebsiella pneumoniae [5]): inactive; Activity (Pseudomonas aeruginosa [6]): inactive
COc1ccc(C(=O)Nc2c(C#N)cnn2-c2ccc([N+](=O)[O-])cc2[N+](=O)[O-])cc1	31.9 µM (≈ 13 µg/mL)	15.3 µM (≈ 6.25 µg/mL)	
Cc1ccc(C(=O)Nc2c(C#N)cnn2-c2ccc([N+](=O)[O-])cc2[N+](=O)[O-])cc1	60.5 µM (≈ 23.7 µg/mL)	63.8 µM (≈ 25 µg/mL)	
N#Cc1cnn(-c2ccc([N+](=O)[O-])cc2[N+](=O)[O-])c1NC(=O)c1ccc(Cl)cc1	15.3 µM (≈ 6.32 µg/mL)	60.5 µM (≈ 25 µg/mL)	
CC1=C(C(=O)O)N2C(=O)[C@@H](NC(=O)[C@H](N)c3ccccc3)[C@H]2SC1 [CEPHALEXIN ANHYDROUS]	4.6 µM (≈ 1.6 µg/mL)	72 µM (≈ 25 µg/mL)	
CC(=O)Nc1c(C#N)cnn1-c1ccc([N+](=O)[O-])cc1[N+](=O)[O-]	316 µM (≈ 99.9 µg/mL)	632 µM (≈ 200 µg/mL)	MIC (Streptococcus pyogenes): 100 µg/mL (≈ 316 µM); MIC (Streptococcus pneumoniae): 100 µg/mL (≈ 316 µM); Activity (Klebsiella pneumoniae [5]): inactive; Activity (Pseudomonas aeruginosa [6]): inactive
N#Cc1cnn(-c2ccc([N+](=O)[O-])cc2[N+](=O)[O-])c1NC(=O)c1ccc(Br)cc1	27.4 µM (≈ 12.5 µg/mL)	27.4 µM (≈ 12.5 µg/mL)	
N#Cc1cnn(-c2ccc([N+](=O)[O-])cc2[N+](=O)[O-])c1N			Activity (Streptococcus pyogenes): inactive; Activity (Streptococcus pneumoniae): inactive; Activity (Staphylococcus aureus [2]): inactive
N#Cc1cnn(-c2ccc([N+](=O)[O-])cc2[N+](=O)[O-])c1NC(=O)C1CCCCC1	195 µM (≈ 75.1 µg/mL)	391 µM (≈ 150 µg/mL)	Activity (Klebsiella pneumoniae [5]): inactive; Activity (Pseudomonas aeruginosa [6]): inactive

— ChEMBL document CHEMBL3046829, “Design, synthesis, and structureactivity relationship study of 5-amido-1-(2,4-dinitrophenyl)-1H-4-pyrazolecarbonitrils as DD-carboxypeptidase/penicillin-binding protein inhibitors with Gram-positive antibacterial activity” (2010)
